Data from PubChem BioAssay AID248 (DTP/NCI, 2004).
Values joined by “and” are separate entries in the source; they are usually repeats but may differ in a detail not shown here. Equal entries are not always repeated. Inconclusive results and toxic doses are left out. No stated cut-off is given here; in the data, active means T/C of 150% or more; inactive means T/C below 125%.

System: L1210 leukemia ip in BDF1 mice, survival T/C
Assay: NCI In Vivo Anticancer Drug Screen. Data for tumor model L1210 Leukemia (intraperitoneal) in B6D2F1 (BDF1) mice
Settings: endpoint: mean survival time, higher = longer survival
Summary of the method: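 Read-out is survival time, reported as the treated-group measurement over the vehicle-control measurement.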

[1] = dose: 100.0 mg/kg/injection, schedule: Q04DX002 (ip), vehicle: saline with Tween-80
[2] = dose: 200.0 mg/kg/injection, schedule: Q04DX002 (ip), vehicle: saline with Tween-80
[3] = dose: 400.0 mg/kg/injection, schedule: Q04DX002 (ip), vehicle: saline with Tween-80
[4] = dose: 100.0 mg/kg/injection, schedule: Q01DX001 (ip), vehicle: saline
[5] = dose: 200.0 mg/kg/injection, schedule: Q01DX001 (ip), vehicle: saline
[6] = dose: 400.0 mg/kg/injection, schedule: Q01DX001 (ip), vehicle: saline
[7] = dose: 100.0 mg/kg/injection, schedule: Q04DX003 (ip), vehicle: saline with Tween-80
[8] = dose: 200.0 mg/kg/injection, schedule: Q04DX003 (ip), vehicle: saline with Tween-80
[9] = dose: 400.0 mg/kg/injection, schedule: Q04DX003 (ip), vehicle: saline with Tween-80
[10] = dose: 100.0 mg/kg/injection, schedule: Q04DX003 (ip), vehicle: Klucel (hydroxypropylcellulose) (HPC)
[11] = dose: 100.0 mg/kg/injection, schedule: Q01DX009 (ip), vehicle: saline with Tween-80

Measured: T/C

O=c1[nH]cc(CN(CCO)CCO)c(=O)[nH]1
inactive: dose: 100.0 mg/kg/injection, schedule: Q01DX Z (ip), vehicle: saline 101 % of control | dose: 200.0 mg/kg/injection, schedule: Q01DX Z (ip), vehicle: saline 103 % of control

CCC(C)SC1=NC(N)=NC2=NC=NC21 (stereo unspecified)
inactive: dose: 50.0 mg/kg/injection, schedule: Q04DX003 (ip), vehicle: carboxymethylcellulose (CMC) 118 % of control | dose: 100.0 mg/kg/injection, schedule: Q04DX003 (ip), vehicle: carboxymethylcellulose (CMC) 122 % of control

CCCCSC1CC(=O)N(CCCC)C1=O (stereo unspecified)
inactive: dose: 75.0 mg/kg/injection, schedule: Q04DX003 (ip), vehicle: saline with Tween-80 100 % of control | dose: 100.0 mg/kg/injection, schedule: Q01DX001 (ip), vehicle: saline with Tween-80 103 % of control | dose: 150.0 mg/kg/injection, schedule: Q04DX003 (ip), vehicle: saline with Tween-80 90 % of control | dose: 200.0 mg/kg/injection, schedule: Q01DX001 (ip), vehicle: saline with Tween-80 98 % of control | dose: 300.0 mg/kg/injection, schedule: Q04DX003 (ip), vehicle: saline with Tween-80 92 % of control | dose: 400.0 mg/kg/injection, schedule: Q01DX001 (ip), vehicle: saline with Tween-80 101 % of control

O=C1CC23CCC12CCCC3=O (stereo unspecified)
inactive: [1] 100 % of control | [2] 93 % of control | [3] 97 % of control

CCOC(=O)NC(C)(CC)c1ccccc1 (stereo unspecified)
inactive: dose: 100.0 mg/kg/injection, schedule: Q01DX001 (ip), vehicle: other 105 % of control | dose: 200.0 mg/kg/injection, schedule: Q01DX001 (ip), vehicle: other 109 % of control | dose: 400.0 mg/kg/injection, schedule: Q01DX001 (ip), vehicle: other 117 % of control

COCCCNCCCN1CC1
inactive: dose: 31.25 mg/kg/injection, schedule: Q04DX003 (ip), vehicle: saline 105 % of control | dose: 62.5 mg/kg/injection, schedule: Q01DX009 (ip), vehicle: saline 106 % of control | dose: 62.5 mg/kg/injection, schedule: Q04DX003 (ip), vehicle: saline 114 % of control

O=P1(N(CCF)CCCl)NCCCO1 (stereo unspecified)
inactive: dose: 10.0 mg/kg/injection, schedule: Q01DX Z (ip), vehicle: other 94 % of control | dose: 30.0 mg/kg/injection, schedule: Q01DX Z (ip), vehicle: other 102 % of control

CC(C(=O)c1ccc(Br)cc1)C(O)(C(F)(F)F)C(F)(F)F (stereo unspecified)
inactive: dose: 100.0 mg/kg/injection, schedule: Q01DX007 (ip), vehicle: saline with Tween-80 102 % of control | dose: 200.0 mg/kg/injection, schedule: Q01DX007 (ip), vehicle: saline with Tween-80 109 % of control | dose: 400.0 mg/kg/injection, schedule: Q01DX007 (ip), vehicle: saline with Tween-80 101 % of control

CCC(=O)CC(C)CC (stereo unspecified)
inactive: dose: 50.0 mg/kg/injection, schedule: Q01DX001 (ip), vehicle: carboxymethylcellulose (CMC) 94 % of control | dose: 100.0 mg/kg/injection, schedule: Q01DX001 (ip), vehicle: carboxymethylcellulose (CMC) 102 % of control | dose: 200.0 mg/kg/injection, schedule: Q01DX001 (ip), vehicle: carboxymethylcellulose (CMC) 91 % of control | dose: 400.0 mg/kg/injection, schedule: Q01DX001 (ip), vehicle: carboxymethylcellulose (CMC) 102 % of control

CCNC(=S)Nc1cccc(C)c1
inactive: dose: 25.0 mg/kg/injection, schedule: Q04DX002 (ip), vehicle: gum acacia 102 % of control | dose: 50.0 mg/kg/injection, schedule: Q04DX002 (ip), vehicle: gum acacia 97 % of control | dose: 100.0 mg/kg/injection, schedule: Q04DX002 (ip), vehicle: gum acacia 97 % of control | dose: 200.0 mg/kg/injection, schedule: Q04DX002 (ip), vehicle: gum acacia 89 % of control

O=c1[nH]c(=O)n(C2OC(CO)C(O)C2O)c2scnc12 (stereo unspecified)
inactive: dose: 100.0 mg/kg/injection, schedule: Q01DX005 (ip), vehicle: saline 98 % of control | dose: 200.0 mg/kg/injection, schedule: Q01DX005 (ip), vehicle: saline 100 % of control

Cc1c[n+](=O)c(C)cn1[O-]
inactive: [4] 97 % of control | [5] 100 % of control | [6] 103 % of control

CCOC(=O)C1=NN(c2ccccc2)C(=O)C1N=Nc1ccc(S(=O)(=O)Nc2ccccn2)cc1 (stereo unspecified)
inactive: [4] 102 % of control | [5] 96 % of control | [6] 93 % of control

COC(=O)[C@]1(C)CCC[C@]2(C)c3ccc(C(C)C)cc3CC[C@@H]12
inactive: dose: 0.5 mg/kg/injection, schedule: Q01DX009 (ip), vehicle: Klucel (hydroxypropylcellulose) (HPC) 100 % of control | dose: 0.5 mg/kg/injection, schedule: Q04DX003 (ip), vehicle: Klucel (hydroxypropylcellulose) (HPC) 107 % of control | dose: 1.0 mg/kg/injection, schedule: Q01DX009 (ip), vehicle: Klucel (hydroxypropylcellulose) (HPC) 111 % of control | dose: 1.0 mg/kg/injection, schedule: Q04DX003 (ip), vehicle: Klucel (hydroxypropylcellulose) (HPC) 93 % of control | dose: 2.0 mg/kg/injection, schedule: Q01DX009 (ip), vehicle: Klucel (hydroxypropylcellulose) (HPC) 98 % of control | dose: 2.0 mg/kg/injection, schedule: Q04DX003 (ip), vehicle: Klucel (hydroxypropylcellulose) (HPC) 98 % of control | [7] 96 % of control | [8] 107 % of control | [9] 102 % of control

O=c1c(Br)cc(Cl)nc2c(Br)cc(Br)cc12
inactive: dose: 12.0 mg/kg/injection, schedule: Q01DX009 (ip), vehicle: Klucel (hydroxypropylcellulose) (HPC) 103 % of control | dose: 25.0 mg/kg/injection, schedule: Q01DX009 (ip), vehicle: Klucel (hydroxypropylcellulose) (HPC) 103 % of control | dose: 25.0 mg/kg/injection, schedule: Q04DX003 (ip), vehicle: Klucel (hydroxypropylcellulose) (HPC) 102 % of control | dose: 50.0 mg/kg/injection, schedule: Q01DX009 (ip), vehicle: Klucel (hydroxypropylcellulose) (HPC) 96 % of control and 89 % of control | dose: 50.0 mg/kg/injection, schedule: Q04DX003 (ip), vehicle: Klucel (hydroxypropylcellulose) (HPC) 98 % of control | [10] 93 % of control and 91 % of control

N#Cc1nc[nH]c1C(N)=O
inactive: [4] 94 % of control | [5] 94 % of control | [6] 96 % of control

Cc1cccc(OC(F)(F)C(F)Cl)c1 (stereo unspecified)
inactive: [11] 94 % of control | [7] 93 % of control | dose: 200.0 mg/kg/injection, schedule: Q01DX009 (ip), vehicle: saline with Tween-80 92 % of control | [8] 93 % of control | dose: 400.0 mg/kg/injection, schedule: Q01DX009 (ip), vehicle: saline with Tween-80 100 % of control | [9] 95 % of control

c1ccc(P(=NC2CCCCC2)(c2ccccc2)c2ccccc2)cc1
inactive: dose: 50.0 mg/kg/injection, schedule: Q04DX003 (ip), vehicle: acetone 96 % of control | dose: 100.0 mg/kg/injection, schedule: Q04DX003 (ip), vehicle: acetone 94 % of control

CCCCCC1SC1CC1SC1CCCCCCCC(=O)N1CCOCC1 (stereo unspecified)
inactive: [11] 98 % of control

CC(C)=CCN(CC=C(C)C)CCC(C#N)(CCN(CC=C(C)C)CC=C(C)C)c1cccc2ccccc12
inactive: dose: 100.0 mg/kg/injection, schedule: Q01DX009 (ip), vehicle: Klucel (hydroxypropylcellulose) (HPC) 86 % of control

CCOC(=O)CN1CC(=O)OC(C(Cl)(Cl)Cl)C1 (stereo unspecified)
inactive: [7] 98 % of control | [8] 90 % of control | [9] 93 % of control

COc1ccc(-c2cnc(=O)[nH]c2N)cc1
inactive: [10] 101 % of control | dose: 200.0 mg/kg/injection, schedule: Q04DX003 (ip), vehicle: Klucel (hydroxypropylcellulose) (HPC) 104 % of control

O=C1OC(/C=C/c2ccccc2)=NC/1=C\c1ccc(O)cc1
inactive: [1] 104 % of control | [2] 93 % of control | [3] 93 % of control
